Patent US7273723B2, “Antibiotic-based gene regulation system” (priority 2001, dated 2007)

Columns and labels:
CHO cells = assay: CHO cell morphology and growth in the presence of EM; assay type: cell-based, Chinese hamster; settings: EM 2 μg/ml
ET1/PETR3 [1] = assay: Dose-response of EM-dependent SEAP expression in stable CHO-ET11-SEAP; assay type: cell-based, Chinese hamster ovary cells; settings: 48 h
Procedure: The cell line CHO-ET1-SEAP1 was grown for 48 h at different EM concentrations (ng/ml). The relative SEAP production is shown over 5 orders of magnitude of EM concentration.
Chinese hamster ovary cells (CHO-K1, ATCC: CCL 61), and HeLa cells (ATCC: CRL-7923) as well as stable cell lines derived thereof were cultured as described before (Fussenegger et al., 1998, Nat. Biotechnol. 16,468-472) in the presence of appropriate antibiotics: G418 400 μg/ml; zeocin 100 μg/ml. Optimized CaPO4 protocols were used for high efficiency transient transfection of all cell lines (Fussenegger et al., 1998. Nat. Biotechnol. 16: 468-472). Transiently transfected cells were routinely analyzed after 48 h for CFP or SEAP expression using fluorescence microscopy and p-nitrophenolphosphate-based light absorbance timecourse, respectively, as described before (Fussenegger et al., 1998, Nat. Biotechnol. 16, 468-472; Berger et al., 1988, Gene 66, 1-10 b). For construction of stable CHO-ET1 and CHO-Triplet42 cell lines, CHO-Ki and CHO-TWIN1108 (Disclosed in PCT application no. 00/65080) were cotransfected with pWW35 and pZeoSV2 (invitrogen). CHO-ET11-SEAP was constructed by cotransfection of pWW38 and pSV2neo (Clontech) into CHO-ET11. The mixed populations were cloned using FACS-mediated single-cell-sorting (FACStar^Plus; Beckton Dickinson). For assessment of dose-response characteristics of PETR3-regulated gene expression, CHO-ET11-SEAP were cultured at cell densities of 50,000/ml for 48 h at various EM concentrations.
Varying the concentrations of EM used for induction could control the levels of PETR3-regulated gene expression. This was assessed using a stable CHO cell line (CHO-ET11-SEAP) which expresses PETR3-SEAP (pWW38) and stably contains also a constitutive ET1 expression vector (pWW35). […] Increasing EM concentration above 10 ng/ml leads to a gradual decrease in SEAP expression, with lowest SEAP expression levels at EM concentrations over 1000 ng/ml. […]

ET1/PETR3 [2] = assay: CFP expression in CHO cells infected with ET1-encoding lentivirus (pMF391) and transfected with pWW44; assay type: cell-based; settings: 2 μg/ml erythromycin
[3] = tested on: transrepressors MphR(A) or ET4 (MphR(A)-KRAB) / PETRON promoters; assay: Erythromycin-inducible EON system, SEAP assay in transiently cotransfected CHO-K1; assay type: cell-based; settings: for SEAP activity [U/L] +Erythromycin [2 μg/ml]: CHO-K1, 48 hrs, title: erythromycin (2 μg/ml)
Description: The classical ET/PETR system belongs to the “OFF” family of regulation concepts since gene expression is activated upon withdrawal of the regulating antibiotic. However, in some applications such as gene therapy and tissue engineering an “ON” system that is induced upon addition of macrolide antibiotics is more desirable. We therefore constructed a new MphR(A)-based binary EON system which consists of a PETRON promoter and a set of two different transrepressors. Two different PETRON promoters were constructed: PETRON4 consists of an ETR4 (four tandem repetitions of ETR, SEQ ID NO 26) placed downstream of the strong viral SV40 promoter. PETRON8 contains eight tandem repetitions (SEQ ID NO 27) of ETR instead of four.
Transrepressors such as ET4 (SEQ ID NO 10, example 1, FIG. 2), which consists of a protein fusion between MphR(A) and the KRAB silencing domain of the human kox-1 gene (Deuschle et al., 1995, Mol. Cell Biol. 15: 1907-1914) or MphR(A) alone, bind to ETR in front of PSV40 and block transcription of this promoter. Besides sterical transcription blocking, the silencing domain of ET4 can additionally downregulate PSV40 activity.
The ETR4 sequence (SEQ ID NO: 26) was excised from the WEBE Gene vector (custom synthesized by Operon Technologies Inc.) by SfuI and EcoRI and ligated into the corresponding sites of pMF208 (Fussenegger et al., 2000. supra) thus resulting in plasmid pWW55 (FIG. 7) containing the PSV40-ETR4-SEAP cassette. The combination of PSV40 and ETR4 is designated PETRON4. For construction of PETRON8, ETR4 was excised (PmeI/EcoRI) from pWW55 and cloned into pWW55 restricted with (EcoRV/EcoRI) thus resulting in SV40-ETR8-SEAP (pWW56).
ET4, the MphR(A)-KRAB fusion protein was constructed as described in example 1 (SEQ ID NO 10). For expression of MphR(A) pWW29 (SEQ ID NO 4) was used. The stop codon of the original MphR(A) has been mutated in order to allow fusion to the various transactivating and transrepressing domains. Because of the mutation of this stop codon the mphR(A) gene contained in pWW29 is terminated a few bp downstream at the next stop codon encountered in the vector sequence. However, the resulting MphR(A) protein preserves its role as transcriptional repressor in the EON configuration.
The regulation performance of PETRON4 (PSV40-ETR4-SEAP-pA; pWW55) and PETRON8 (PSV40-ETR8-SEAP-pA; pWW56) was assessed in CHO-K1 cells harboring the MphR(A) expression vector pWW29 (PEF1α-E-pA) (Table 7).

[4] = tested on: PSV40 or PhCMV-driven SEAP expression constructs; assay: SEAP expression from constitutive PSV40 or PhCMV-driven constructs with erythromycin; assay type: cell-based; settings: data not shown

## CC[C@H]1OC(=O)[C@H](C)[C@@H](O[C@H]2C[C@@](C)(OC)[C@@H](O)[C@H](C)O2)[C@H](C)[C@@H](O[C@@H]2O[C@H](C)C[C@H](N(C)C)[C@H]2O)[C@](C)(O)C[C@@H](C)C(=O)[C@H](C)[C@@H](O)[C@]1(C)O [Erythromycin]
CHO cells
  Effects on CHO cell morphology and growth: No deleterious effects
ET1/PETR3 [1]
  EM concentration at which ET1/PETR3 is fully induced: < 10 ng/mL
  EM concentration at which ET1/PETR3 is repressed (lowest SEAP expression): > 1000 ng/mL
  EM concentration window in which gene expression can be adjusted to different levels: 10 to 1000 ng/mL
ET1/PETR3 [2]
  CFP expression (fluorescence): complete repression
[3]; PETR-ON4 + ET4
  SEAP activity [U/L] +Erythromycin [2 μg/ml]: 35.7 ± 4.7 U/L
[3]; PETR-ON4 + MphR(A)
  SEAP activity [U/L] +Erythromycin [2 μg/ml]: 175.7 ± 6.2 U/L
[3]; PETR-ON4 repressed by MphR(A)
  Induction factor (expression in induced state to expression in repressed state): ~5
[3]; PETR-ON8 + ET4
  SEAP activity [U/L] +Erythromycin [2 μg/ml]: 55.4 ± 1.8 U/L
[3]; PETR-ON8 + MphR(A)
  SEAP activity [U/L] +Erythromycin [2 μg/ml]: 81.6 ± 4.3 U/L
[3]; PETR-ON8 repressed by MphR(A)
  Induction factor (expression in induced state to expression in repressed state): ~5
[4]
  Influence on expression levels of PSV40 or PhCMV-driven SEAP expression constructs: no influence
